Test results taken from paper PMC12564265, “Navigating the Deep Eutectic Solvent Landscape: Experimental and Machine Learning Solubility Explorations of Syringic, p-Coumaric, and Caffeic Acids” (International Journal of Molecular Sciences, 2025).
“And” between values parts separate entries of the source, which are not always exact repeats. Equal entries are not always repeated.

Assays:
[1] = Shake-flask solubility with spectrophotometric measurement in neat deep eutectic solvents; assay type: physicochemical
Protocol: (§1) In order to determine the solubility of the three studied phenolic acids in deep eutectic solvents, a very well-established shake-flask method coupled with spectrophotometric measurements was utilized. The initial procedure involved the preparation of various DESs, which was conducted by mixing their HBA and HBD counterparts in a glass vessel and heating the composition until the formation of a transparent, uniform liquid. […] For additional measurements, the DESs were mixed with water in varying proportions, creating aqueous DES systems. Saturated solutions of CAF, SYR, and COU were obtained by adding excess amounts of these compounds to test tubes containing either a neat deep eutectic solvent or its aqueous solution. Such samples were placed in the Orbital Shaker Incubator ES-20/60 from Biosan (Riga, Latvia) and heated for 24 h at 25 °C, 30 °C, 35 °C, and 40 °C (±0.1 °C) with simultaneous mixing at 60 rpm. Before measurements, the samples were filtered using a PTFE syringe filter from Qpore (Dallas, TX, USA) with a 0.22 μm pore size. In order to avoid possible precipitation of the saturated solutions at decreased temperatures, the test tubes, syringes, pipette tips, and filters were kept at a temperature identical to that of the samples. The spectrophotometric measurements required the preparation of calibration curves for the three APIs. This involved the preparation of a stock solution of each compound in methanol, which was later successfully diluted, and the obtained solutions of varying concentrations were measured using an A360 spectrophotometer from AOE Instruments (Shanghai, China). The wavelength range was set to 200-500 nm, and the resolution was 1 nm. The analytical wavelengths were determined to be 324 nm for caffeic acid, 273 nm for syringic acid, and 308 nm for p-coumaric acid. The final regression equations, obtained after averaging three distinct sets of measurements, are collected in Table 2 together with determination coefficients and limits of detection (LOD) and quantification (LOQ) for the calibration curves. The measurements of the samples were conducted with the same spectrophotometer and identical settings. Methanol was used for the dilution of the samples so that they could remain within the linearity range of the method. Complete spectra of the samples were recorded, but for the solubility determination, the absorbance values at a specific analytical wavelength were considered. These values were combined with the corresponding regression equations of the calibration curves and served for the calculation of the concentration of the three phenolic acids in the studied samples. The densities of such samples were also measured, and for this task 1 mL of each sample was weighed to a precision of 0.1 mg using an AS 110 R2.PLUS analytical balance from […] (Radom, Poland). The obtained densities enabled the calculation of mole fractions of CAF, SYR, and COU dissolved in the studied DESs. For each considered system, three distinct measurements were conducted, and the results were averaged.

[2] = Shake-flask solubility with spectrophotometric measurement in aqueous DES mixtures; assay type: physicochemical; details: Bet – TEG 1:2 + water
Protocol: as §1

Mole fraction solubility ([1]; neat DES Bet - DEG, HBA:HBD molar ratio 1:1, 25 °C): 0.0497±0.0004 mole fraction
Mole fraction solubility ([1]; neat DES Bet - DEG, HBA:HBD molar ratio 1:2, 25 °C): 0.0576±0.0005 mole fraction
Mole fraction solubility ([1]; neat DES Bet - DEG, HBA:HBD molar ratio 1:4, 25 °C): 0.0537±0.0004 mole fraction
Mole fraction solubility ([1]; neat DES Bet - ETG, HBA:HBD molar ratio 1:1, 25 °C): 0.0411±0.0004 mole fraction
Mole fraction solubility ([1]; neat DES Bet - ETG, HBA:HBD molar ratio 1:2, 25 °C): 0.0458±0.0004 mole fraction
Mole fraction solubility ([1]; neat DES Bet - GLY, HBA:HBD molar ratio 1:1, 25 °C): 0.0561±0.0004 mole fraction
Mole fraction solubility ([1]; neat DES Bet - GLY, HBA:HBD molar ratio 1:2, 25 °C): 0.0622±0.0006 mole fraction
Mole fraction solubility ([1]; neat DES Bet - GLY, HBA:HBD molar ratio 1:4, 25 °C): 0.0573±0.0002 mole fraction
Mole fraction solubility ([1]; neat DES Bet - TEG, HBA:HBD molar ratio 1:1, 25 °C): 0.0655±0.0012 mole fraction
Mole fraction solubility ([1]; neat DES Bet - TEG, HBA:HBD molar ratio 1:2, 25 °C): 0.0755±0.0010 mole fraction
Mole fraction solubility ([1]; neat DES Bet - TEG, HBA:HBD molar ratio 1:2, 25 °C, listed as Caffeic acid): 0.0755 mole fraction
Mole fraction solubility ([1]; neat DES Bet - TEG, HBA:HBD molar ratio 1:4, 25 °C): 0.0716±0.0007 mole fraction
Mole fraction solubility ([1]; neat DES ChCl - DEG, HBA:HBD molar ratio 1:1, 25 °C): 0.0584±0.0003 mole fraction
Mole fraction solubility ([1]; neat DES ChCl - DEG, HBA:HBD molar ratio 1:2, 25 °C): 0.0664±0.0005 mole fraction
Mole fraction solubility ([1]; neat DES ChCl - ETG, HBA:HBD molar ratio 1:1, 25 °C): 0.0435±0.0004 mole fraction
Mole fraction solubility ([1]; neat DES ChCl - ETG, HBA:HBD molar ratio 1:2, 25 °C): 0.0494±0.0003 mole fraction
Mole fraction solubility ([1]; neat DES ChCl - ETG, HBA:HBD molar ratio 1:4, 25 °C): 0.0471±0.0003 mole fraction
Mole fraction solubility ([1]; neat DES ChCl - TEG, HBA:HBD molar ratio 1:2, 25 °C): 0.0835 mole fraction
Mole fraction solubility ([2]; x*DES 0.1, 25°C): 0.0077±0.0001 mole fraction
Mole fraction solubility ([2]; x*DES 0.1, 30°C): 0.0087±0.0001 mole fraction
Mole fraction solubility ([2]; x*DES 0.1, 35°C): 0.0101±0.0001 mole fraction
Mole fraction solubility ([2]; x*DES 0.1, 40°C): 0.0121±0.0001 mole fraction
Mole fraction solubility ([2]; x*DES 0.2, 25°C): 0.0155±0.0001 mole fraction
Mole fraction solubility ([2]; x*DES 0.2, 30°C): 0.0195±0.0002 mole fraction
Mole fraction solubility ([2]; x*DES 0.2, 35°C): 0.0203±0.0002 mole fraction
Mole fraction solubility ([2]; x*DES 0.2, 40°C): 0.0243±0.0003 mole fraction
Mole fraction solubility ([2]; x*DES 0.3, 25°C): 0.0243±0.0002 mole fraction
Mole fraction solubility ([2]; x*DES 0.3, 30°C): 0.0271±0.0002 mole fraction
Mole fraction solubility ([2]; x*DES 0.3, 35°C): 0.0318±0.0002 mole fraction
Mole fraction solubility ([2]; x*DES 0.3, 40°C): 0.0377±0.0003 mole fraction
Mole fraction solubility ([2]; x*DES 0.4, 25°C): 0.0343±0.0002 mole fraction
Mole fraction solubility ([2]; x*DES 0.4, 30°C): 0.0379±0.0001 mole fraction
Mole fraction solubility ([2]; x*DES 0.4, 35°C): 0.0450±0.0002 mole fraction
Mole fraction solubility ([2]; x*DES 0.4, 40°C): 0.0538±0.0003 mole fraction
Mole fraction solubility ([2]; x*DES 0.5, 25°C): 0.0432±0.0002 mole fraction
Mole fraction solubility ([2]; x*DES 0.5, 30°C): 0.0476±0.0003 mole fraction
Mole fraction solubility ([2]; x*DES 0.5, 35°C): 0.0565±0.0003 mole fraction
Mole fraction solubility ([2]; x*DES 0.5, 40°C): 0.0690±0.0009 mole fraction
Mole fraction solubility ([2]; x*DES 0.6, 25°C): 0.0543±0.0003 mole fraction
Mole fraction solubility ([2]; x*DES 0.6, 30°C): 0.0601±0.0005 mole fraction
Mole fraction solubility ([2]; x*DES 0.6, 35°C): 0.0703±0.0005 mole fraction
Mole fraction solubility ([2]; x*DES 0.6, 40°C): 0.0870±0.0009 mole fraction
Mole fraction solubility ([2]; x*DES 0.7, 25°C): 0.0659±0.0007 mole fraction
Mole fraction solubility ([2]; x*DES 0.7, 30°C): 0.0737±0.0006 mole fraction
Mole fraction solubility ([2]; x*DES 0.7, 35°C): 0.0862±0.0007 mole fraction
Mole fraction solubility ([2]; x*DES 0.7, 40°C): 0.1046±0.0008 mole fraction
Mole fraction solubility ([2]; x*DES 0.8, 25°C): 0.0797±0.0006 mole fraction
Mole fraction solubility ([2]; x*DES 0.8, 30°C): 0.0901±0.0008 mole fraction
Mole fraction solubility ([2]; x*DES 0.8, 35°C): 0.1042±0.0013 mole fraction
Mole fraction solubility ([2]; x*DES 0.8, 40°C): 0.1253±0.0010 mole fraction
SMILES: O=C(O)C=Cc1ccc(O)c(O)c1 [caffeic acid, 3,4-dihydroxycinnamic acid]
Mole fraction solubility ([2]; x*DES 0.9, 25°C): 0.0823 mole fraction and 0.0823±0.0013 mole fraction
